Measured values reported in US8338392B2, “MicroRNA modulators and method for identifying and using the same” (The Wistar Institute, priority 2008, dated 2012).
“Also recorded” adds a separate entry of the source.

Assays:
Format in all cases: cell-based, human
miR-21 = test: Luc-miR-21 luciferase reporter assay in HeLa cells; conditions: for Luciferase Assay: HeLa cells with Luc-miR-21 reporter, screen at 10 μM, 48 hours
From the text: (§1) MicroRNA miR-21 was selected as a target miRNA due to its involvement as an anti-apoptotic factor in cancer cells and its elevated levels in various cancers such as breast, ovarian, and lung cancer as well as glioblastoma (Chan, et al. (2005) Cancer Res. 65:6029). Lentiviral reporter constructs for miRNA activity were assembled by introducing the complementary sequences of mature miR-21 (5′-UAGCUUAUCAGACUGAUGUUGA-3′; SEQ ID NO:13), miR-30A (5′-CUUUCAGUCGGAUGUUUGCAGC-3′; SEQ ID NO:14) as a specificity control, and a linker sequence (a previously present multiple-cloning site with no detectable recognition by natural miRNAs) downstream of a luciferase reporter gene as a negative control (FIG. 1).
(§2) Luc-miR-21, Luc-miR-30A, and Luc-linker (control) were, by viral infection, introduced into HeLa cells, which express high levels of miR-21, but only low levels of miR-30A (Cheng, et al. (2005) Nucl. Acids Res. 33:1290).
To illustrate the method of the present invention, a primary screen of >1000 compounds was conducted. The library was composed of a collection of novel compounds and the Library of Pharmacologically Active Compounds (LOPAC library, Sigma-Aldrich, St Louis, Mo.). All compounds were stored at a 10 mM concentration in DMSO to keep the DMSO concentration in the actual screen at 0.1% thereby minimizing toxicity. HeLa cells stably expressing the miR-reporter were treated with DMSO ranging from 0.1-1%. Luciferase signals were determined 48 hours after the treatment.
HeLa cells (2500 cells) were plated in each well of 384-well plate 24 hour before the addition of compounds. Compounds at 10 μM final concentration were added to each well. Luciferase signal were determined 48 hours after compound treatment. Using this screening assay, compound 1 was identified as a miR-21 antagonist.

Luc-Linker control = Luc-Linker control luciferase reporter in HeLa cells; conditions: 10 μM, relative to DMSO, listed as diazobenzene 2
From the text: as §1, §2
(§3) It was subsequently determined whether Compound 2 was a specific inhibitor of miR-21 or whether it could interfere with the general miRNA biogenesis pathway. Thus, HeLa cells stably expressing both the miR-30 luciferase reporter construct and miR-30 were treated with Compound 2.

miR-30 = miR-30 luciferase reporter in HeLa cells expressing miR-30; conditions: HeLa cells expressing miR-30 reporter and miR-30, 10 μM
From the text: as §1
The specificity of the reporter system was tested by assaying cells which contained both the Luc-miR-30A reporter and a construct expressing exogenous miR-30.
as §3

mature miR-21 = test: Quantitative RT-PCR of mature miR-21; conditions: for mature miR-21 expression upon treatment: HCT116 colon cancer cells and A172 glioblastoma cells
From the text: (§4) UNG (Applied Biosystems). […] (Sigma). […] ID NO:18); E-cadherin: forward [NT] ID NO:19), reverse [NT] ID NO:20); Fibronectin: forward [NT] ID NO:21), reverse [NT] ID NO:22); RAP1A: forward [NT] ID NO:23), reverse [NT]

mature miR-30 = test: Quantitative RT-PCR of mature miR-30; conditions: MDA-MB-231, MCF-7 and A172 cell lines
From the text: as §4

mature miR-93 = test: Quantitative RT-PCR of mature miR-93; conditions: MDA-MB-231, MCF-7 and A172 cell lines
From the text: as §4

[1] = test system: primary miR-21 (pri-miR-21); test: Quantitative RT-PCR of primary miR-21; conditions: for primary miR-21 expression upon treatment: HCT116 colon cancer cells and A172 glioblastoma cells
From the text: UNG (Applied Biosystems). […] (Sigma).

[2] = test system: HCT116 colon cancer cells; test: Cell proliferation of HCT116 cells, drug combinations
From the text: The % activity indicates % live cell activity.

[3] = MDA-MB-231, MCF-7 and A172 cell lines

## C#CCNC(=O)c1ccc(/N=N/c2ccccc2)cc1 [Compound 2, (E)-4-(Phenyldiazenyl)-N-(prop-2-ynyl)benzamide]
miR-21; 10 μM, HeLa cells
  fold increase of the luciferase signal: 5 fold
miR-21
  Luciferase Assay: 4.83
Luc-Linker control
  effect on luciferase signal, Luc-Linker control: does not affect; also recorded: did not affect the luciferase signal
miR-30
  effect on luciferase signal, miR-30 reporter: no increase of the luciferase signal was detected
miR-30; listed as diazobenzene 2
  effect on luciferase signal, miR-30 reporter: does not affect
Mature miR-21; [3]
  effect on mature miR-21: suppressed
Mature miR-30
  effect on mature miR-30: no effect
Mature miR-93
  effect on mature miR-93: no effect
[1]; [3]
  effect on primary miR-21: suppressed
[2]; combination with 5-FU
  proliferation of HCT116 cells, combination with 5-FU: synergistic effect; also recorded: synergistically decrease the proliferation
[2]; combination with Curcumin
  proliferation of HCT116 cells, combination with Curcumin: synergistic effect; also recorded: synergistically decrease the proliferation

## C#CCNC(=O)c1ccc(NNc2ccccc2)cc1 [Compound 3]
miR-21
  Luciferase Assay: 3.67

## Cn1c2c(c3ccccc3c1=O)C(=O)c1cc3c(cc1-2)OCO3 [Compound 4]
miR-21
  Luciferase Assay: 3.12

## O=c1[nH]cc(F)c(=O)[nH]1 [Compound 5-FU, 5-fluorouracil]
Mature miR-21
  mature miR-21 expression upon treatment: increased
[1]
  primary miR-21 expression upon treatment: increased

## O=C1c2cc3c(cc2-c2[nH]c(=O)c4ccccc4c21)OCO3 [Compound 5]
miR-21
  Luciferase Assay: 2.92

## COc1ccc2c(c1[N+](=O)[O-])CCC1C2CC[C@]2(C)C(=O)CCC12 (stereo partly shown) [Compound 6]
miR-21
  Luciferase Assay: 3.34

## COc1ccc2c(c1N)CCC1C2CC[C@]2(C)C(=O)CCC12 (stereo partly shown) [Compound 7]
miR-21
  Luciferase Assay: 3.04-3.87

## COc1cc2c(cc1N)C1CC[C@]3(C)C(=O)CCC3C1CC2 (stereo partly shown) [Compound 8]
miR-21
  Luciferase Assay: 3.50

## COc1cc(/C=C/C(=O)CC(=O)/C=C/c2ccc(O)c(OC)c2)ccc1O [Curcumin, curcumin]
Mature miR-21
  mature miR-21 expression upon treatment: increased
[1]
  primary miR-21 expression upon treatment: increased

## C[C@]12CC[C@@H]3c4ccc(O)cc4CC[C@H]3[C@@H]1CCC2=O [Estrone, estrone, reference compound]
miR-21
  Luciferase Assay: 2.76
